# Assay results as given in patent US20250195513A1, “DEGRADATION OF IRAK4 BY CONJUGATION OF IRAK4 INHIBITORS WITH E3 LIGASE LIGAND AND METHODS OF USE” (BeiGene, Ltd., priority 2022, published 2025).
# How the values were obtained:
# Format in all cases: cell-based
# IRAK4 [1] = target: T1, IRAK4 (Homo sapiens, UniProt Q9NWZ3); assay: IRAK4 Degradation Assay (Karpas299, HTRF/TR-FRET); settings: Karpas-299 cells; for Dmax: maximum percentage of degradation
# T1 construct: endogenous in cells; host or cells: Karpas299
# T1 sequence (Q9NWZ3 1-460): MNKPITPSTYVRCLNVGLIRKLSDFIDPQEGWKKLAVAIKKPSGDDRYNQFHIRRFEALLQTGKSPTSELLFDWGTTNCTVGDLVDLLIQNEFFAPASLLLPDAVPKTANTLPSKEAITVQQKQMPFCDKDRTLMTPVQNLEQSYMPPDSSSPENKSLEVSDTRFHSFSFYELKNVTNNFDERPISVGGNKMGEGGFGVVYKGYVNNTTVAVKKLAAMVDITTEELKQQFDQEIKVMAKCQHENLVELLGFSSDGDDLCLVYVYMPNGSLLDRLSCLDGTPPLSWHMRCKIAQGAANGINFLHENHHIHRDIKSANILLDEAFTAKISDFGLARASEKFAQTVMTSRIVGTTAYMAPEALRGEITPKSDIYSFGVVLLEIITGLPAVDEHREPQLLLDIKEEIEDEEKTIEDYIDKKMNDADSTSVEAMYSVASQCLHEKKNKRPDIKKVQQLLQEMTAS
# Summary of the method: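 Compound potency as DC50 (IC50) came from four-parameter fits of percent IRAK4 degradation. IRAK4 was measured by HTRF (665/620 nm) in lysates of Karpas299 cells seeded at 0.2 million per well. Cells had been treated with compound dilutions for 5 or 24 h.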
# IRAK4 [2] = target: T1, IRAK4; assay: IRAK4 Degradation Assay with Human Serum (Karpas299, HTRF/TR-FRET); settings: Karpas-299 in human serum, 24 hrs treatment; for DC50: read-out: IRAK4 degradtion with human serum assay DC50; for Dmax: read-out: IRAK4 degradtion with human serum assay Dmax (%)
# Summary of the method: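 Remaining IRAK4 measured by TR-FRET immunoassay on lysates of Karpas299 cells exposed 24 h to compound dilution series in human serum AB. DC50 derived from a Hill-slope fit of % degradation versus concentration.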
# [3] = system: TNF-α production in THP-1 cells; assay: TNF-α Production Assay in THP-1 Cells (LPS stimulated); settings: Homo sapiens, THP-1, 24 h; for Emax: maximum inhibition, read-out: TNF-α (THP-1) 24 h IMax
# Summary of the method: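 Cells (0.2 million/well) pretreated with compounds for 24 h, then stimulated with LPS at 1 μg/mL final for 24 h. TNF-α in culture supernatant quantified by TR-FRET immunoassay.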
# [4] = system: IL-6 production in human PBMC; assay: IL-6 Production Assay in Human PBMC (LPS stimulated); settings: Homo sapiens, 5 h; for Emax: maximum inhibition, read-out: IL-6 (PBMC) 5 h IMax
# Summary of the method: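 Thawed PBMC were rested overnight at 37 °C, seeded at 0.2 million cells/well and pretreated with compounds for 24 h. They were then stimulated with LPS at 10 ng/mL for 5 h. IL-6 in the supernatant was quantified by TR-FRET.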
# [5] = 24 h treatment, read-out: IRAK4 in Karpas-299 (24 h) Dmax (%)
# [6] = 24 h treatment, read-out: IRAK4 in Karpas-299 (24 h) DC50
# [7] = 5 h treatment, read-out: IRAK4 in Karpas-299 (5 h) Dmax (%)
# [8] = 5 h treatment, read-out: IRAK4 in Karpas-299 (5 h) DC50
Compound,Dmax (IRAK4 [1]; [5]),DC50 (IRAK4 [1]; [6]),DC50 (IRAK4 [2]),Dmax (IRAK4 [2]),IC50 [3],Emax [3],IC50 [4],Emax [4],Dmax (IRAK4 [1]; [7]),DC50 (IRAK4 [1]; [8])
"CC(C)(O)c1cc2nn([C@H]3CC[C@H](N4CCN(CC5CN(c6cc(F)c([C@H]7CCC(=O)NC7=O)c(F)c6)C5)CC4)CC3)cc2cc1NC(=O)c1ccc2cc(C#N)cnn12 [Example 290, 3-cyano-N-(2-((1r,4r)-4-(4-((1-(4-((R)-2,6-dioxopiperidin-3-yl)-3,5-difluorophenyl)azetidin-3-yl)methyl)piperazin-1-yl)cyclohexyl)-6-(2-hydroxypropan-2-yl)-2H-indazol-5-yl)pyrrolo[1,2-b]pyridazine-7-carboxamide]",98%,0.6 nM,4.4 nM,99%,9 nM,96%,0.8 nM,71%,–,–
"CC(C)(O)c1cc2nn(C34CC(N5CCN(CC6CN(c7cc(F)c([C@H]8CCC(=O)NC8=O)c(F)c7)C6)CC5)(C3)C4)cc2cc1NC(=O)c1ccc2cc(C#N)cnn12 [Example 332, (R)-3-cyano-N-(2-(3-(4-((1-(4-(2,6-dioxopiperidin-3-yl)-3,5-difluorophenyl)azetidin-3-yl)methyl)piperazin-1-yl)bicyclo[1.1.1]pentan-1-yl)-6-(2-hydroxypropan-2-yl)-2H-indazol-5-yl)pyrrolo[1,2-b]pyridazine-7-carboxamide]",97%,0.6 nM,10 nM,101%,7.6 nM,93%,1.4 nM,70%,97%,1.5 nM
"CC(C)(O)c1cc2nn(C34CCC(N5CCN(C6CCN(c7cc(F)c([C@H]8CCC(=O)NC8=O)c(F)c7)CC6)CC5)(CC3)CC4)cc2cc1NC(=O)c1ccc2cc(C#N)cnn12 [Example 333, (R)-3-cyano-N-(2-(4-(4-(1-(4-(2,6-dioxopiperidin-3-yl)-3,5-difluorophenyl)piperidin-4-yl)piperazin-1-yl)bicyclo[2.2.2]octan-1-yl)-6-(2-hydroxypropan-2-yl)-2H-indazol-5-yl)pyrrolo[1,2-b]pyridazine-7-carboxamide]",97%,2.4 nM,23 nM,93%,10 nM,96%,4.7 nM,62%,98%,3.9 nM
"CC(C)(O)c1cc2nn(C34CCC(N5CCN(CCc6cc(F)c([C@H]7CCC(=O)NC7=O)c(F)c6)CC5)(CC3)CC4)cc2cc1NC(=O)c1ccc2cc(C#N)cnn12 [Example 151, (R)-3-cyano-N-(2-(4-(4-(4-(2,6-dioxopiperidin-3-yl)-3,5-difluorophenethyl)piperazin-1-yl)bicyclo[2.2.2]octan-1-yl)-6-(2-hydroxypropan-2-yl)-2H-indazol-5-yl)pyrrolo[1,2-b]pyridazine-7-carboxamide]",99%,0.9 nM,3.9 nM,101%,27 nM,84%,7.4 nM,53%,–,–
"CC(C)(O)c1cc2nn([C@H]3CC[C@H](N4CCN(C5CCN(c6cc(F)c(C7CCC(=O)NC7=O)c(F)c6)CC5)CC4)CC3)cc2cc1NC(=O)c1ccc2cc(C#N)cnn12 (stereo partly drawn) [Example 196, 3-cyano-N-(2-((1r,4r)-4-(4-(1-(4-((R)-2,6-dioxopiperidin-3-yl)-3,5-difluorophenyl)piperidin-4-yl)piperazin-1-yl)cyclohexyl)-6-(2-hydroxypropan-2-yl)-2H-indazol-5-yl)pyrrolo[1,2-b]pyridazine-7-carboxamide]",99%,0.6 nM,8.8 nM,93%,20 nM,86%,11 nM,72%,99%,5.3 nM
"COC[C@H]1CN([C@H]2CC[C@H](n3cc4cc(NC(=O)c5ccc6cc(C#N)cnn56)c(C(C)(C)O)cc4n3)CC2)CCN1CCc1cc(F)c([C@H]2CCC(=O)NC2=O)c(F)c1 [Example 314, 3-cyano-N-(2-((1R,4r)-4-((R)-4-(4-((R)-2,6-dioxopiperidin-3-yl)-3,5-difluorophenethyl)-3-(methoxymethyl)piperazin-1-yl)cyclohexyl)-6-(2-hydroxypropan-2-yl)-2H-indazol-5-yl)pyrrolo[1,2-b]pyridazine-7-carboxamide]",98%,0.6 nM,3.4 nM,98%,26 nM,88%,2.3 nM,51%,–,–
"COC[C@H]1CN([C@H]2CC[C@H](n3cc4cc(NC(=O)c5ccc6cc(C#N)cnn56)c(C(C)(C)O)cc4n3)CC2)CCN1C1CCN(c2cc(F)c([C@H]3CCC(=O)NC3=O)c(F)c2)CC1 [Example 317, 3-cyano-N-(2-((1R,4r)-4-((R)-4-(1-(4-((R)-2,6-dioxopiperidin-3-yl)-3,5-difluorophenyl)piperidin-4-yl)-3-(methoxymethyl)piperazin-1-yl)cyclohexyl)-6-(2-hydroxypropan-2-yl)-2H-indazol-5-yl)pyrrolo[1,2-b]pyridazine-7-carboxamide]",96%,0.8 nM,25 nM,100%,41 nM,87%,1 nM,71%,95%,1.9 nM
"CC(C)(O)c1cc2nn([C@H]3CC[C@H](N4CCN(CCc5cc(F)c([C@H]6CCC(=O)NC6=O)c(F)c5)CC4)CC3)cc2cc1NC(=O)c1ccc2cc(C#N)cnn12 [Example 182, 3-cyano-N-(2-((1R,4r)-4-(4-(4-((R)-2,6-dioxopiperidin-3-yl)-3,5-difluorophenethyl)piperazin-1-yl)cyclohexyl)-6-(2-hydroxypropan-2-yl)-2H-indazol-5-yl)pyrrolo[1,2-b]pyridazine-7-carboxamide]",98%,0.3 nM,3.7 nM,99%,33 nM,71%,2.5 nM,64%,96%,2.3 nM
COC[C@@H]1CN([C@H]2CC[C@H](n3cc4cc(NC(=O)c5ccc6cc(C#N)cnn56)c(C(C)(C)O)cc4n3)CC2)CCN1CCc1cc(F)c([C@H]2CCC(=O)NC2=O)c(F)c1 [Example 320],99%,1 nM,4.1 nM,98%,43 nM,85%,9.2 nM,65%,–,–
"COC[C@@H]1CN(CC2CN(c3cc(F)c([C@H]4CCC(=O)NC4=O)c(F)c3)C2)CCN1[C@H]1CC[C@H](n2cc3cc(NC(=O)c4ccc5cc(C#N)cnn45)c(C(C)(C)O)cc3n2)CC1 [Example 326, 3-cyano-N-(2-((1S,4r)-4-((S)-4-((1-(4-((R)-2,6-dioxopiperidin-3-yl)-3,5-difluorophenyl)azetidin-3-yl)methyl)-2-(methoxymethyl)piperazin-1-yl)cyclohexyl)-6-(2-hydroxypropan-2-yl)-2H-indazol-5-yl)pyrrolo[1,2-b]pyridazine-7-carboxamide]",100%,0.7 nM,2.9 nM,95%,13 nM,99%,1.9 nM,65%,97%,1.9 nM
"Cc1nc(C2CCC(=O)NC2=O)ccc1N1CCC(N2CCN([C@H]3CC[C@H](n4cc5cc(NC(=O)c6ccc7cc(C#N)cnn67)c(C(C)(C)O)cc5n4)CC3)CC2)CC1 (stereo partly drawn) [Example 398, 3-cyano-N-(2-((1r,4r)-4-(4-(1-(6-(2,6-dioxopiperidin-3-yl)-2-methylpyridin-3-yl)piperidin-4-yl)piperazin-1-yl)cyclohexyl)-6-(2-hydroxypropan-2-yl)-2H-indazol-5-yl)pyrrolo[1,2-b]pyridazine-7-carboxamide]",97%,2.3 nM,2.6 nM,98%,21 nM,97%,2.4 nM,70%,97%,1.9 nM
